Measured values taken from publication PMC6110851, “An Optimized MicroPET Imaging Method for the Distribution and Synergies of Natural Products” (Frontiers in Pharmacology, 2018).
Where two headings read alike, the source gives them in different places.

Test: MicroPET distribution of [^18F]-GA after PG polysaccharides intervention
Type: in vivo, mice
Settings: for tissue uptake at 1 h / tissue uptake at 168 h: male, Kunming, mouse, lungs, po; for tissue uptake at 1 h: PG polysaccharides orally 1 h before [^18F]-GA, read-out: %ID/g of [^18F]-GA in the lungs, OA; for tissue uptake at 168 h: PG polysaccharides orally for 7 days, read-out: %ID/g of [^18F]-GA in the lungs, LA
Description: The mice were grouped by weight and housed in cages of the climate control room (25°C), with a photoperiod 12:12-h. During feeding, mice were free to access food and water. Mice were fasted for 24 h before the experiment. The mice were anesthetized with 4% isoflurane while preparing for scanning ([Constantinescu et al., 2013b]; [Cui et al., 2017]). Eighteen healthy male Kunming mice, weighing 20 ± 2 g, were divided into three groups, which were control group, once-administered (OA) group and long-term administration (LA) group. In the OA group, 1 h before the administration of [^18F]-GA, the mice were orally treated with PG polysaccharides. In the LA group, the mice were orally given the PG polysaccharides for 7 days, but not before the administration of [^18F]-GA.
Rice received a tail vein injection (8.67 ± 2.14 MBq/μg) of [^18F]-GA and placed in the scanner bed and mouse-imaging room immediately ([Constantinescu et al., 2013b]; [O’Doherty et al., 2017]). Firstly, 2 h PET scanning was performed using an Inveon-dedicated PET scanner. The average delay between injection and starting of PET scanning was 3.5 min. Rice were maintained stable under 4% isoflurane anesthesia throughout scanning. The PET list-mode data were dynamically classified into 23 3D sinograms of span and three ring difference. After Fourier recombination, the data were reconstructed using a 2D ordered-subset expectation maximization algorithm. Random events were excluded before reconstruction. The response of detector is normalized using a component-based approach. All dynamic images were corrected for radioactive decay automatically. The PET images were reconstructed by a cone beam algorithm into 480 × 480 × 632 image arrays. After the reconstruction, images were spatially transformed to match the PET images ([Constantinescu et al., 2013a],[b]).
The reconstruction of the image was performed using the PMOD software (PMOD Technologies). The 3D volumes of interest (VOIs) were drawn manually of the following organs: brain, heart, liver, lungs, kidneys, cortical bone, and gallbladder. The organs were carefully identified and VOIs were drawn as irregular contours on high-resolution PET images obtained from each mouse ([Constantinescu et al., 2013b]; [Garg et al., 2017]). The size of each VOI was less than the actual size of each organ to minimize the effects of PET on adjacent organ spills. The VOIs drawing was verified by a second operator. The VOIs of cortical bone were generated by first using PET image to depict the entire femur bone ([Constantinescu et al., 2013b]). The VOI was transferred to a dynamic PET image and the mean time-activity curve (TAC) of the decay correction was extracted for each target organ ([Constantinescu et al., 2013b]).

**Q.** Which tissue uptake at 1 h (mice, Time(s) 1140) does the source give for CC1(C)[C@@H](O)CC[C@]2(C)[C@H]3C(=O)C=C4[C@@H]5C[C@@](C)(C(=O)NCCCC[18F])CC[C@]5(C)CC[C@@]4(C)[C@]3(C)CC[C@@H]12 [[^18F]-GA, [^18F]-Glycyrrhetinic acid] here?
**A.** 4.25 %ID/g

**Q.** What about the tissue uptake at 1 h (mice, Time(s) 1350) of the same compound?
**A.** 4.17 %ID/g

**Q.** And the tissue uptake at 1 h (mice, Time(s) 1650)?
**A.** 4.06 %ID/g

**Q.** What about the tissue uptake at 1 h (mice, Time(s) 1950) of the same compound?
**A.** 3.95 %ID/g

**Q.** What about the tissue uptake at 1 h (mice, Time(s) 2250) of the same compound?
**A.** 3.79 %ID/g

**Q.** And the tissue uptake at 1 h (mice, Time(s) 2700)?
**A.** 3.54 %ID/g

**Q.** What about the tissue uptake at 1 h (mice, Time(s) 3300) of the same compound?
**A.** 3.17 %ID/g

**Q.** What about the tissue uptake at 1 h (mice, Time(s) 3900) of the same compound?
**A.** 3.06 %ID/g

**Q.** What about the tissue uptake at 1 h (mice, Time(s) 4500) of the same compound?
**A.** 3.07 %ID/g

**Q.** What about the tissue uptake at 1 h (mice, Time(s) 5100) of the same compound?
**A.** 2.96 %ID/g

**Q.** And the tissue uptake at 1 h (mice, Time(s) 5700)?
**A.** 2.88 %ID/g

**Q.** What about the tissue uptake at 1 h (mice, Time(s) 6300) of the same compound?
**A.** 2.95 %ID/g

**Q.** And the tissue uptake at 1 h (mice, Time(s) 6900)?
**A.** 2.85 %ID/g

**Q.** What about the tissue uptake at 168 h (mice, Time(s) 60) of the same compound?
**A.** 8.74 %ID/g

**Q.** What about the tissue uptake at 168 h (mice, Time(s) 180) of the same compound?
**A.** 4.38 %ID/g

**Q.** And the tissue uptake at 168 h (mice, Time(s) 300)?
**A.** 3.63 %ID/g

**Q.** What about the tissue uptake at 168 h (mice, Time(s) 420) of the same compound?
**A.** 3.15 %ID/g

**Q.** And the tissue uptake at 168 h (mice, Time(s) 540)?
**A.** 2.85 %ID/g

**Q.** What about the tissue uptake at 168 h (mice, Time(s) 660) of the same compound?
**A.** 2.9 %ID/g

**Q.** What about the tissue uptake at 168 h (mice, Time(s) 780) of the same compound?
**A.** 2.51 %ID/g

**Q.** What about the tissue uptake at 168 h (mice, Time(s) 900) of the same compound?
**A.** 2.49 %ID/g

**Q.** What about the tissue uptake at 168 h (mice, Time(s) 1020) of the same compound?
**A.** 2.35 %ID/g

**Q.** What about the tissue uptake at 168 h (mice, Time(s) 1140) of the same compound?
**A.** 2.19 %ID/g

**Q.** And the tissue uptake at 168 h (mice, Time(s) 1350)?
**A.** 2.16 %ID/g

**Q.** And the tissue uptake at 168 h (mice, Time(s) 1650)?
**A.** 2.06 %ID/g

**Q.** And the tissue uptake at 168 h (mice, Time(s) 1950)?
**A.** 1.89 %ID/g

**Q.** And the tissue uptake at 168 h (mice, Time(s) 2250)?
**A.** 1.78 %ID/g

**Q.** What about the tissue uptake at 168 h (mice, Time(s) 2700) of the same compound?
**A.** 1.7 %ID/g

**Q.** What about the tissue uptake at 168 h (mice, Time(s) 3300) of the same compound?
**A.** 1.48 %ID/g

**Q.** And the tissue uptake at 168 h (mice, Time(s) 3900)?
**A.** 1.33 %ID/g

**Q.** And the tissue uptake at 168 h (mice, Time(s) 4500)?
**A.** 1.24 %ID/g

**Q.** And the tissue uptake at 168 h (mice, Time(s) 5100)?
**A.** 1.18 %ID/g

**Q.** And the tissue uptake at 168 h (mice, Time(s) 5700)?
**A.** 1.06 %ID/g

**Q.** And the tissue uptake at 168 h (mice, Time(s) 6300)?
**A.** 1.11 %ID/g

**Q.** What about the tissue uptake at 168 h (mice, Time(s) 6900) of the same compound?
**A.** 1.05 %ID/g

**Q.** What about the “%ID/g of [^18F]-GA in the lungs, Con” value (mice, control group, Time(s) 660) of the same compound?
**A.** 2.45 %ID/g

**Q.** What about the “change of [^18F]-GA concentration in other organs after PG polysaccharides intervention” value (organs other than lung) of the same compound?
**A.** no significant change in other organs
